Test results from patent US20250041307A1, “Uses of Bicyclic Compounds for the Treatment of Diseases” (Athira Pharma, Inc., priority 2021, published 2025).

Tests used:
MDCK cells = test: Cell scattering behavior assay; assay type: cell-based; set-up: key: − indicates that the compound failed to significantly promote cell scattering behavior; + indicates maximum potency at or above 100 nM; ++ indicates maximum potency at or above 10 nM; +++ indicates maximum potency at or above 1 nM; ++++ indicates maximum potency at or above 0.1 nM; conditions: with 5 ng/mL HGF, 24 hours, normalized particle count compared to HGF treatment alone
How it was run: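 MDCK cells starved 2 h in serum-free DMEM, then treated 24 h at 37 °C with compounds plus 5 ng/mL HGF. Cells were ethanol-fixed, WGA488-stained and imaged. Scattering was scored as particle count normalized to stained area, with activity taken as a statistical increase in normalized particle count over HGF alone.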

[1] = Parallel artificial membrane permeability assay (PAMPA); assay type: in vitro ADME; conditions: PBS, room temperature for 5 hours, 200 uM in donor well
How it was run: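 Compounds in PBS (initial donor concentration 200 uM) placed in donor wells against PBS acceptor, 5 replicates, incubated 5 hours at room temperature. Donor and acceptor concentrations quantified by UV plate reading against per-compound 6-point standard curves; permeability and membrane retention calculated from concentrations, volumes, filter area and time.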

[2] = In vitro stability in simulated gastric and intestinal fluids; assay type: in vitro ADME; conditions: 37° C.; for SGF, compound remaining after 4 hours: simulated gastric fluid pH 1.2, 5 μM; for SGF + Enz, compound remaining after 4 hours: simulated gastric fluid with 3.2 mg/ml pepsin; for SGF + Enz, compound remaining after 4 hours / SIF, compound remaining after 4 hours: 5 μM; for SIF, compound remaining after 4 hours: simulated intestinal fluid pH 6.8 with 10 mg/ml pancreatin
Protocol: Bioavailability can be estimated by compound stability when exposed to conditions in the body. As an initial assessment of stability properties in a variety of conditions present in animals, exemplary compounds were tested for stability in a battery of simulated body compartments. Compounds were tested for stability in the following solutions: simulated gastric fluid (SGF: 34.2 mM NaCl, pH 1.2), simulated gastric fluid with the digestive enzyme pepsin (SGF+Enzyme: SGF with 3.2 mg/ml pepsin), simulated intestinal fluid with the mixture of enzymes in porcine pancreatin (SIF+Enzyme: 28.7 mM NaH2PO4, 105.7 mM NaCl, pH 6.8, 10 mg/ml pancreatin), rat plasma, and human plasma.
Test compounds were incubated at a final concentration of 5 μM in the above solutions at 37° C. with samples removed at the following time points: 0, 1, 2, and 4 hours. Reactions were stopped and prepared for quantification by addition of excess quench solution containing an internal standard (acetonitrile, 200 ng/mL bucetin). Test compound and internal standard in each sample was quantified by LC-MS/MS, and after internal normalization to bucetin, test compound concentration was expressed as a percentage of concentration at the 0-hour time point. Stability in the relevant test solution was then determined by the percent remaining at the 4-hour time point.

SMILES | Potency (MDCK cells) | Papp at 5 h, 200 uM [1] [×10⁻⁶ cm/s] | SGF, compound remaining after 4 hours [2] | SGF + Enz, compound remaining after 4 hours [2] | SIF, compound remaining after 4 hours [2]
CCC(C)CN1CC2N(C(=O)c3ccc(C(F)(F)F)cc3)CCC(=O)N2[C@@H](C)C1=O (stereo partly drawn) [Compound 1a] | ++++ (++++ indicates maximum potency at or above 0.1 nM) | > 2 | ++++ (++++ indicates 100% compound remaining after 4 hours) | ++++ (++++ indicates 100% compound remaining after 4 hours) | ++++ (++++ indicates 100% compound remaining after 4 hours)
CCC(C)CN1CC2N(C(=O)c3ccc(OC(F)F)cc3)CCC(=O)N2[C@@H](C)C1=O (stereo partly drawn) [Compound 2a] | + (+ indicates maximum potency at or above 100 nM) | < 2 | ++++ (++++ indicates 100% compound remaining after 4 hours) | +++ (+++ indicates 80-99% compound remaining after 4 hours) | ++++ (++++ indicates 100% compound remaining after 4 hours)
CCC(C)CN1CC2N(Cc3ccc(C(F)(F)F)cc3)CCC(=O)N2[C@@H](C)C1=O (stereo partly drawn) [Compound 5a] | ++++ (++++ indicates maximum potency at or above 0.1 nM) | < 2 | +++ (+++ indicates 80-99% compound remaining after 4 hours) | + (+ indicates 20-39% compound remaining after 4 hours) | +++ (+++ indicates 80-99% compound remaining after 4 hours)
CCC(C)CN1CC2N(Cc3ccc(OC(F)F)cc3)CCC(=O)N2[C@@H](C)C1=O (stereo partly drawn) [Compound 6a] | +++ (+++ indicates maximum potency at or above 1 nM) | < 2 | +++ (+++ indicates 80-99% compound remaining after 4 hours) | + (+ indicates 20-39% compound remaining after 4 hours) | ++ (++ indicates 40-79% compound remaining after 4 hours)
CCC(C)CN1CC2N(Cc3ccc(O)nc3)CCC(=O)N2[C@@H](C)C1=O (stereo partly drawn) [Compound 7a] | ++ (++ indicates maximum potency at or above 10 nM) | > 10 | ++++ (++++ indicates 100% compound remaining after 4 hours) | +++ (+++ indicates 80-99% compound remaining after 4 hours) | ++ (++ indicates 40-79% compound remaining after 4 hours)
CCC(C)CN1CC2N(C(=O)c3ccc(O)cc3)CCC(=O)N2[C@@H](C)C1=O (stereo partly drawn) [Compound 8a] | +++ (+++ indicates maximum potency at or above 1 nM) | > 10 | ++++ (++++ indicates 100% compound remaining after 4 hours) | +++ (+++ indicates 80-99% compound remaining after 4 hours) | +++ (+++ indicates 80-99% compound remaining after 4 hours)
CCC(C)CN1CC2N(C(=O)c3ccc(F)cc3)CCC(=O)N2C(C)C1=O (stereo not drawn) [Compound 11, 1-(4-fluorobenzoyl)-6-methyl-8-(2-methylbutyl)hexahydro-4H-pyrazino[1,2-a]pyrimidine-4,7(6H)-dione] | ++ (++ indicates maximum potency at or above 10 nM) | > 2 | +++ (+++ indicates 80-99% compound remaining after 4 hours) | +++ (+++ indicates 80-99% compound remaining after 4 hours) | ++++ (++++ indicates 100% compound remaining after 4 hours)
CCC(C)CN1CC2N(C(=O)c3ccc(C(F)(F)F)c(Cl)c3)CCC(=O)N2C(C)C1=O (stereo not drawn) [Compound 12, 1-(3-chloro-4-(trifluoromethyl)benzoyl)-6-methyl-8-(2-methylbutyl)hexahydro-4H-pyrazino[1,2-a]pyrimidine-4,7(6H)-dione] | ++ (++ indicates maximum potency at or above 10 nM) | < 2 | +++ (+++ indicates 80-99% compound remaining after 4 hours) | +++ (+++ indicates 80-99% compound remaining after 4 hours) | ++ (++ indicates 40-79% compound remaining after 4 hours)
CCCCN1CC2N(C(=O)c3ccc(OC(F)F)cc3)CCC(=O)N2C(C)C1=O (stereo not drawn) [Compound 17] | − | > 2 | +++ (+++ indicates 80-99% compound remaining after 4 hours) | +++ (+++ indicates 80-99% compound remaining after 4 hours) | +++ (+++ indicates 80-99% compound remaining after 4 hours)
CC1C(=O)N(CCC2CCCC2)CC2N(C(=O)c3ccc(C(F)(F)F)cc3)CCC(=O)N12 (stereo not drawn) [Compound 19] | +++ (+++ indicates maximum potency at or above 1 nM) | < 2 | +++ (+++ indicates 80-99% compound remaining after 4 hours) | ++ (++ indicates 40-79% compound remaining after 4 hours) | + (+ indicates 20-39% compound remaining after 4 hours)
CC1C(=O)N(CCC2CCC2)CC2N(C(=O)c3ccc(C(F)(F)F)cc3)CCC(=O)N12 (stereo not drawn) [Compound 20] | +++ (+++ indicates maximum potency at or above 1 nM) | < 2 | +++ (+++ indicates 80-99% compound remaining after 4 hours) | +++ (+++ indicates 80-99% compound remaining after 4 hours) | +++ (+++ indicates 80-99% compound remaining after 4 hours)
C=CCCN1CC2N(C(=O)c3ccc(C(F)(F)F)cc3)CCC(=O)N2C(C)C1=O (stereo not drawn) [Compound 22] | ++ (++ indicates maximum potency at or above 10 nM) | < 2 | +++ (+++ indicates 80-99% compound remaining after 4 hours) | +++ (+++ indicates 80-99% compound remaining after 4 hours) | +++ (+++ indicates 80-99% compound remaining after 4 hours)
